# What was measured:
# Assay type in all cases: in vivo
# [1] = test system: foxtail, giant (giant foxtail, Setaria faberii); experiment: Test C preemergence; settings: for Plant response rating (scale of 0 to 100), Foxtail, Giant: 31 g ai/ha, 0 is no effect, 100 is complete control; for Plant response rating, Foxtail, Giant: scale 0 to 100, 0 no effect, 100 complete control
# Method in brief: (§1)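 After treatment with surfactant-containing formulations, either preemergence to seeds in loam-sand soil or postemergence to potted seedlings at 2–18 cm, plants were kept 13–15 d in a greenhouse. Observers then compared them with controls and assigned ratings, 0 signifying no effect and 100 complete control.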
# [2] = test system: waterhemp (common waterhemp, Amaranthus rudis); experiment: Test C preemergence; settings: for Plant response rating (scale of 0 to 100), Waterhemp: 31 g ai/ha, 0 is no effect, 100 is complete control; for Plant response rating, Waterhemp: scale 0 to 100, 0 no effect, 100 complete control
# Method in brief: as §1
# [3] = test system: wheat (winter wheat, Triticum aestivum); experiment: Test C preemergence; settings: for Plant response rating (scale of 0 to 100), Wheat: 31 g ai/ha, 0 is no effect, 100 is complete control; for Plant response rating, Wheat: scale 0 to 100, 0 no effect, 100 complete control
# Method in brief: as §1
# [4] = test system: lambsquarters (Chenopodium album); experiment: Test C preemergence; settings: for Plant response rating (scale of 0 to 100), Lambsquarters: 31 g ai/ha, 0 is no effect, 100 is complete control; for Plant response rating, Lambsquarters: scale 0 to 100, 0 no effect, 100 complete control
# Method in brief: as §1
# [5] = test system: blackgrass (Alopecurus myosuroides); experiment: Test C preemergence; settings: for Plant response rating (scale of 0 to 100), Blackgrass: 31 g ai/ha, 0 is no effect, 100 is complete control; for Plant response rating, Blackgrass: scale 0 to 100, 0 no effect, 100 complete control
# Method in brief: as §1
# [6] = test system: pigweed (Amaranthus retroflexus); experiment: Test C preemergence; settings: for Plant response rating (scale of 0 to 100), Pigweed: 31 g ai/ha, 0 is no effect, 100 is complete control; for Plant response rating, Pigweed: scale 0 to 100, 0 no effect, 100 complete control
# Method in brief: as §1
# [7] = test system: oilseed rape (Brassica napus); experiment: Test C preemergence; settings: for Plant response rating (scale of 0 to 100), Oilseed Rape: 31 g ai/ha, 0 is no effect, 100 is complete control; for Plant response rating, Oilseed Rape: scale 0 to 100, 0 no effect, 100 complete control
# Method in brief: as §1
# corn (Zea mays) = experiment: Test C preemergence; settings: for Plant response rating (scale of 0 to 100), Corn: 31 g ai/ha, 0 is no effect, 100 is complete control; for Plant response rating, Corn: scale 0 to 100, 0 no effect, 100 complete control
# Method in brief: as §1
# [8] = test system: morningglory (Ipomoea coccinea); experiment: Test C preemergence; settings: for Plant response rating (scale of 0 to 100), Morningglory: 31 g ai/ha, 0 is no effect, 100 is complete control; for Plant response rating, Morningglory: scale 0 to 100, 0 no effect, 100 complete control
# Method in brief: as §1
# [9] = test system: johnsongrass (Sorghum halepense); experiment: Test C preemergence; settings: for Plant response rating (scale of 0 to 100), Johnsongrass: 31 g ai/ha, 0 is no effect, 100 is complete control; for Plant response rating, Johnsongrass: scale 0 to 100, 0 no effect, 100 complete control
# Method in brief: as §1
# [10] = test system: ragweed (common ragweed, Ambrosia elatior); experiment: Test A preemergence; settings: Ambrosia artemisiifolia, pre-emergence, 240 h, read-out: Plant response rating, Ragweed; for pest or weed control at 125 g/ha: 125 g ai/ha, Preemergence, visual injury after approximately 10 d, 0 to 100 scale where 0 is no effect and 100 is complete control; for pest or weed control at 500 g/ha: 500 g ai/ha, preemergence, 0 to 100 scale, 0 = no effect, 100 = complete control
# Method in brief: (§2)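 Ratings of 0 (no effect) to 100 (complete control) come from visual comparison with untreated controls roughly 10 d after treatment. Test chemicals, formulated in a non-phytotoxic solvent mixture with surfactant, were applied either as a preemergence directed soil spray on seeded soil or postemergence to one- to two-leaf plants 2 to 10 cm tall.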
# [11] = test system: barnyardgrass (Echinochloa crus-galli); experiment: Test A preemergence; settings: Echinochloa crus-galli, pre-emergence, 240 h, read-out: Plant response rating, Barnyardgrass; for pest or weed control at 125 g/ha: 125 g ai/ha, Preemergence, visual injury after approximately 10 d, 0 to 100 scale where 0 is no effect and 100 is complete control; for pest or weed control at 500 g/ha: 500 g ai/ha, preemergence, 0 to 100 scale, 0 = no effect, 100 = complete control
# Method in brief: as §2
# [12] = test system: pigweed (Amaranthus retroflexus); experiment: Test A preemergence; settings: Amaranthus retroflexus, pre-emergence, 240 h, read-out: Plant response rating, Pigweed; for pest or weed control at 125 g/ha: 125 g ai/ha, Preemergence, visual injury after approximately 10 d, 0 to 100 scale where 0 is no effect and 100 is complete control; for pest or weed control at 500 g/ha: 500 g ai/ha, preemergence, 0 to 100 scale, 0 = no effect, 100 = complete control
# Kochia (Kochia scoparia) = experiment: Test A preemergence; settings: Bassia scoparia, pre-emergence, 240 h, read-out: Plant response rating, Kochia; for pest or weed control at 125 g/ha: 125 g ai/ha, Preemergence, visual injury after approximately 10 d, 0 to 100 scale where 0 is no effect and 100 is complete control; for pest or weed control at 500 g/ha: 500 g ai/ha, preemergence, 0 to 100 scale, 0 = no effect, 100 = complete control
# Method in brief: as §2
# [13] = test system: ryegrass, Italian (Italian ryegrass, Lolium multiflorum); experiment: Test A preemergence; settings: Lolium multiflorum, pre-emergence, 240 h, read-out: Plant response rating, Ryegrass, Italian; for pest or weed control at 125 g/ha: 125 g ai/ha, Preemergence, visual injury after approximately 10 d, 0 to 100 scale where 0 is no effect and 100 is complete control; for pest or weed control at 500 g/ha: 500 g ai/ha, preemergence, 0 to 100 scale, 0 = no effect, 100 = complete control
# Method in brief: as §2
compound,measurement,setting,value
"CN1C[C@H](c2ccc(C(F)(F)F)cc2)[C@@H](C(=O)Nc2ccccc2F)C1=O [Compound 622, (3S,4S)—N-(2-fluorophenyl)-1-methyl-2-oxo-4-[4-(trifluoromethyl)phenyl]-3-pyrrolidinecarboxamide]","Plant response rating (scale of 0 to 100), Foxtail, Giant",[1],90
same,"Plant response rating, Foxtail, Giant",[1]; 62 g ai/ha,90
same,"Plant response rating, Foxtail, Giant",[1]; 125 g ai/ha,95
same,"Plant response rating, Foxtail, Giant",[1]; 250 g ai/ha,95
same,"Plant response rating (scale of 0 to 100), Waterhemp",[2],75
same,"Plant response rating, Waterhemp",[2]; 62 g ai/ha,85
same,"Plant response rating, Waterhemp",[2]; 125 g ai/ha,90
same,"Plant response rating, Waterhemp",[2]; 250 g ai/ha,90
same,"Plant response rating (scale of 0 to 100), Wheat",[3],30
same,"Plant response rating, Wheat",[3]; 62 g ai/ha,40
same,"Plant response rating, Wheat",[3]; 125 g ai/ha,70
same,"Plant response rating, Wheat",[3]; 250 g ai/ha,80
same,"Plant response rating (scale of 0 to 100), Lambsquarters",[4],75
same,"Plant response rating, Lambsquarters",[4]; 62 g ai/ha,35
same,"Plant response rating, Lambsquarters",[4]; 125 g ai/ha,70
same,"Plant response rating, Lambsquarters",[4]; 250 g ai/ha,75
same,"Plant response rating (scale of 0 to 100), Blackgrass",[5],0
same,"Plant response rating, Blackgrass",[5]; 62 g ai/ha,0
same,"Plant response rating, Blackgrass",[5]; 125 g ai/ha,80
same,"Plant response rating, Blackgrass",[5]; 250 g ai/ha,85
same,"Plant response rating (scale of 0 to 100), Pigweed",[6],75
same,"Plant response rating, Pigweed",[6]; 62 g ai/ha,85
same,"Plant response rating, Pigweed",[6]; 125 g ai/ha,85
same,"Plant response rating, Pigweed",[6]; 250 g ai/ha,90
same,"Plant response rating (scale of 0 to 100), Oilseed Rape",[7],60
same,"Plant response rating, Oilseed Rape",[7]; 62 g ai/ha,85
same,"Plant response rating, Oilseed Rape",[7]; 125 g ai/ha,85
same,"Plant response rating, Oilseed Rape",[7]; 250 g ai/ha,85
same,"Plant response rating (scale of 0 to 100), Corn",corn (Zea mays),5
same,"Plant response rating, Corn",corn (Zea mays); 62 g ai/ha,45
same,"Plant response rating, Corn",corn (Zea mays); 125 g ai/ha,85
same,"Plant response rating, Corn",corn (Zea mays); 250 g ai/ha,80
same,"Plant response rating (scale of 0 to 100), Morningglory",[8],0
same,"Plant response rating, Morningglory",[8]; 62 g ai/ha,0
same,"Plant response rating, Morningglory",[8]; 125 g ai/ha,25
same,"Plant response rating, Morningglory",[8]; 250 g ai/ha,20
same,"Plant response rating (scale of 0 to 100), Johnsongrass",[9],25
same,"Plant response rating, Johnsongrass",[9]; 62 g ai/ha,60
same,"Plant response rating, Johnsongrass",[9]; 125 g ai/ha,50
same,"Plant response rating, Johnsongrass",[9]; 250 g ai/ha,65
same,pest or weed control at 125 g/ha,[10],60%
same,pest or weed control at 500 g/ha,[10],60%
same,pest or weed control at 125 g/ha,[11],90%
same,pest or weed control at 500 g/ha,[11],90%
same,pest or weed control at 125 g/ha,[12],80%
same,pest or weed control at 500 g/ha,[12],80%
same,pest or weed control at 125 g/ha,Kochia (Kochia scoparia),80%
same,pest or weed control at 500 g/ha,Kochia (Kochia scoparia),80%
same,pest or weed control at 125 g/ha,[13],40%
same,pest or weed control at 500 g/ha,[13],40%
"CN1C[C@H](c2ccc(F)c(F)c2)[C@@H](C(=O)Nc2cccc(F)c2F)C1=O [Compound 639, (3S,4S)—N-(2,3-difluorophenyl)-4-(3,4-difluorophenyl)-1-methyl-2-oxo-3-pyrrolidinecarboxamide]","Plant response rating (scale of 0 to 100), Foxtail, Giant",[1],90
same,"Plant response rating, Foxtail, Giant",[1]; 62 g ai/ha,90
same,"Plant response rating, Foxtail, Giant",[1]; 125 g ai/ha,95
same,"Plant response rating, Foxtail, Giant",[1]; 250 g ai/ha,100
same,"Plant response rating (scale of 0 to 100), Waterhemp",[2],50
same,"Plant response rating, Waterhemp",[2]; 62 g ai/ha,65
same,"Plant response rating, Waterhemp",[2]; 125 g ai/ha,75
same,"Plant response rating, Waterhemp",[2]; 250 g ai/ha,80
same,"Plant response rating (scale of 0 to 100), Wheat",[3],0
same,"Plant response rating, Wheat",[3]; 62 g ai/ha,65
same,"Plant response rating, Wheat",[3]; 125 g ai/ha,80
same,"Plant response rating, Wheat",[3]; 250 g ai/ha,85
same,"Plant response rating (scale of 0 to 100), Lambsquarters",[4],20
same,"Plant response rating, Lambsquarters",[4]; 62 g ai/ha,25
same,"Plant response rating, Lambsquarters",[4]; 125 g ai/ha,40
same,"Plant response rating, Lambsquarters",[4]; 250 g ai/ha,70
same,"Plant response rating (scale of 0 to 100), Blackgrass",[5],40
same,"Plant response rating, Blackgrass",[5]; 62 g ai/ha,85
same,"Plant response rating, Blackgrass",[5]; 125 g ai/ha,85
same,"Plant response rating, Blackgrass",[5]; 250 g ai/ha,90
same,"Plant response rating (scale of 0 to 100), Pigweed",[6],40
same,"Plant response rating, Pigweed",[6]; 62 g ai/ha,55
same,"Plant response rating, Pigweed",[6]; 125 g ai/ha,65
same,"Plant response rating, Pigweed",[6]; 250 g ai/ha,75
same,"Plant response rating (scale of 0 to 100), Oilseed Rape",[7],0
same,"Plant response rating, Oilseed Rape",[7]; 62 g ai/ha,60
same,"Plant response rating, Oilseed Rape",[7]; 125 g ai/ha,85
same,"Plant response rating, Oilseed Rape",[7]; 250 g ai/ha,90
same,"Plant response rating (scale of 0 to 100), Corn",corn (Zea mays),5
same,"Plant response rating, Corn",corn (Zea mays); 62 g ai/ha,40
same,"Plant response rating, Corn",corn (Zea mays); 125 g ai/ha,80
same,"Plant response rating, Corn",corn (Zea mays); 250 g ai/ha,85
same,"Plant response rating (scale of 0 to 100), Morningglory",[8],20
same,"Plant response rating, Morningglory",[8]; 62 g ai/ha,10
same,"Plant response rating, Morningglory",[8]; 125 g ai/ha,35
same,"Plant response rating, Morningglory",[8]; 250 g ai/ha,40
same,"Plant response rating (scale of 0 to 100), Johnsongrass",[9],20
same,"Plant response rating, Johnsongrass",[9]; 62 g ai/ha,65
same,"Plant response rating, Johnsongrass",[9]; 125 g ai/ha,80
same,"Plant response rating, Johnsongrass",[9]; 250 g ai/ha,90
same,pest or weed control at 125 g/ha,[10],50%
same,pest or weed control at 500 g/ha,[10],70%
same,pest or weed control at 125 g/ha,[11],90%
same,pest or weed control at 500 g/ha,[11],90%
same,pest or weed control at 125 g/ha,[12],50%
same,pest or weed control at 500 g/ha,[12],80%
same,pest or weed control at 125 g/ha,Kochia (Kochia scoparia),70%
same,pest or weed control at 500 g/ha,Kochia (Kochia scoparia),80%
same,pest or weed control at 125 g/ha,[13],60%
same,pest or weed control at 500 g/ha,[13],90%

# — patent US12077503B2, “Substituted cyclic amides and their use as herbicides” (FMC CORPORATION, priority 2015, dated 2024)
